Earlier results as cited in patent publication US20100297230A1, “COMPOSITIONS AND METHODS FOR PROSTATE AND MENSTRUAL/MENOPAUSAL RELATED HEALTH” (priority 2009, published 2010).
Entries after “also recorded” stand apart in the source; their conditions may differ. Where two headings read alike, the source gives them in different places.

Experiments:
[1] = test system: rats with prostatic hyperplasia; details: testosterone enanthate treated rats; 0.1 mg benzylglucosinolate
[2] = single dose of Epimedium tea
[3] = in vivo
[4] = test system: late postmenopausal women; details: daily 60 mg icariin, 15 mg daidzein, 3 mg genistein; over 25 months; compared to placebo
estrogen receptor beta = estrogen receptor beta (Homo sapiens, UniProt Q92731)
[5] = target: T1, primary alpha receptor (estrogen receptor) (Homo sapiens, UniProt P03372)
T1 sequence (P03372 1-595): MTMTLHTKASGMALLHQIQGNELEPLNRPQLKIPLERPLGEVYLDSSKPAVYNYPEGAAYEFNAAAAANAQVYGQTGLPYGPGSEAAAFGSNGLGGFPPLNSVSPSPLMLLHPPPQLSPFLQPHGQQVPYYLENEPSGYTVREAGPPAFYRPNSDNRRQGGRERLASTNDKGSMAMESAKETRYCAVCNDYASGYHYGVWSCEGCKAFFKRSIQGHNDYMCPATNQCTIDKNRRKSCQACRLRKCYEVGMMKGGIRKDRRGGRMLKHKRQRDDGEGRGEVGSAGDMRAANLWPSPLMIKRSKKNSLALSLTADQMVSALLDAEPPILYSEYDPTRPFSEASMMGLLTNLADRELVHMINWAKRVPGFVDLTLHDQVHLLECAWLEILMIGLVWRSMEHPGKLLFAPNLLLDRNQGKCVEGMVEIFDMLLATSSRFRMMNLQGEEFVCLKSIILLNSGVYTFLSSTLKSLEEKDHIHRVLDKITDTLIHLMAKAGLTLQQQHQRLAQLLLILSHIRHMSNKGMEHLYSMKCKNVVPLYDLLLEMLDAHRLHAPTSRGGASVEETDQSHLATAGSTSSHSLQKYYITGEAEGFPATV

[6] = test system: human prostate carcinoma PC-3 cells; details: in vitro
[7] = test system: human prostatic smooth muscle cells
rats = details: for prostate and seminal vesicle size: 270 mg/kg daily injection, compared to all other treatments, P<0.05
[8] = male and female subjects 18-55 yrs
MMP2 = details: PC-3 cells
MMP9 = details: PC-3 cells

estrogen receptor beta, sequence (Q92731 whole entry, species assumed): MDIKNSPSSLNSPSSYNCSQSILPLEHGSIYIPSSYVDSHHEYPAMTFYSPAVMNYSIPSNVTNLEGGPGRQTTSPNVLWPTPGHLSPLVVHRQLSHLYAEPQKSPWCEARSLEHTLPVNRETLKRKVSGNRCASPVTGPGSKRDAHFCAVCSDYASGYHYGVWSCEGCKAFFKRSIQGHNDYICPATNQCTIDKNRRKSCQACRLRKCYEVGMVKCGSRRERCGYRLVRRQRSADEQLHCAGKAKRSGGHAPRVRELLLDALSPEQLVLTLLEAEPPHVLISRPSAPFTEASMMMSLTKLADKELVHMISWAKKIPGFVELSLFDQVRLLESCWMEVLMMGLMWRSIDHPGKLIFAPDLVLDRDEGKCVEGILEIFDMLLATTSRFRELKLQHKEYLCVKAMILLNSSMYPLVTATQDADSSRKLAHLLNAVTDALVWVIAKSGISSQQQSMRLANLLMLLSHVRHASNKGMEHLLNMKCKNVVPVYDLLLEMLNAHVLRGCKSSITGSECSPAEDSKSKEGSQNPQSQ

SMILES: O=S(=O)(O)O/N=C(\Cc1ccccc1)S[C@@H]1O[C@H](CO)[C@@H](O)[C@H](O)[C@H]1O [Benzylglucosinolate]
- prostate weight [1]: as effective at reducing prostate weight as 0.1 mg finasteride

SMILES: CC(C)=CCc1c(O)cc(O)c2c(=O)c(O)c(-c3ccc(O)cc3)oc12 [Desmethylicaritin]
- serum desmethylicaritin ([2]; desmethyl-icaritin 0.19 mg): not detected

SMILES: O=C(/C=C/c1ccc(O)c(O)c1)O[C@H](Cc1ccc(O)c(O)c1)C(=O)O [Rosmarinic acid]
- metabolic conversion [3]: converted to 3-O-methyl rosmarinic acid
- time to enter the system after administration [3]: ≤ 20 min
- AP-1-dependent activation of COX-2 expression (COX-2 expression): potential preventative effects

SMILES: COc1ccc(-c2oc3c(CC=C(C)C)c(O[C@@H]4O[C@H](CO)[C@@H](O)[C@H](O)[C@H]4O)cc(O)c3c(=O)c2O[C@@H]2O[C@@H](C)[C@H](O)[C@@H](O)[C@H]2O)cc1 [icariin, 5-hydroxy-2-(4-methoxyphenyl)-8-(3-methylbut-2-enyl)-7-[(2S,3R,4S,5S,6R)-3,4,5-trihydroxy-6-(hydroxymethyl)oxan-2-yl]oxy-3-[(2S,3R,4R,5R,6S)-3,4,5-trihydroxy-6-methyloxan-2-yl]oxychromen-4-one]
- bone mass density / bone loss [4]: increases bone density
- peak serum icariin concentration ([2]; 12.6 mg icariin ingested): 2.1 ng/mL
- interaction with estrogen receptor beta (estrogen receptor beta): interact with estrogen receptor beta; also recorded: targets the beta receptor over the alpha receptor
- interaction with estrogen receptor alpha [5]: not with the primary alpha receptor

SMILES: COc1ccc(-c2oc3c(CC=C(C)C)c(O)cc(O)c3c(=O)c2O)cc1 [icaritin]
- growth of prostate carcinoma cells [6]: inhibit prostate cancer cell growth
- growth of prostate carcinoma cells ([6]; listed as Icaritin): strongly inhibited growth
- time of peak icaritin level [2]: 8 h
- apoptosis of human prostatic smooth muscle cells [7]: inducing apoptosis; also recorded: induces apoptosis
- cyclin D1 and CDK4 expression [7]: decreases
- growth of human prostatic smooth muscle cells [7]: reduces the growth

SMILES: O=c1c(O)c(-c2ccc(O)c(O)c2)oc2cc(O)cc(O)c12 [quercetin, 2-(3,4-dihydroxyphenyl)-3,5,7-trihydroxy-4H-chromen-4-one]
- prostate and seminal vesicle size (rats): decreased significantly
- prostate and seminal vesicle size (rats; listed as Quercetin): effective at reducing prostate size
- sperm quality and sexual organ function (rats; 270 mg/kg group): positive effect
- peak plasma concentration [8]: 463 ng/mL
- time to peak plasma concentration [8]: 3.5 h
- MMP2 activity (MMP2; P<0.05): significantly inhibited
- MMP2 expression (MMP2; dose dependent manner): inhibited
- MMP9 activity (MMP9; P<0.05): significantly inhibited
- MMP9 expression (MMP9; dose dependent manner): inhibited
